In ChEMBL document CHEMBL5335815, “The Greater Celandine: Identification and Characterization of an Antimicrobial Peptide from Chelidonium majus” (J Nat Prod, 2024):
Active and inactive are the calls of the source. The rule behind the calls is not given here. Bridge positions count the residues as written; N and C are the ends. Peptide text beside a SMILES is read from it.

Legend:
[1] = test system: Escherichia coli; assay: Induction of BasS protein expression in Escherichia coli assessed as fold increase at 5 microg/ml; assay type: functional; settings: dose 5.0 µg/ml
[2] = Proteolytic stability assessed as proteinase K (unknown origin) mediated compound degradation incubated for 10 mins by LC-MS analysis; assay type: ADME; settings: human
[3] = Proteolytic stability assessed as proteinase K (unknown origin)-mediated compound degradation in presence of reduced and alkylated cysteines measured after 10 mins by LC-MS analysis; assay type: ADME
[4] = test system: Proteinase K (Engyodontium album); assay: Inhibition of proteinase K (Engyodontium album)

Row | SMILES | fold change (FC) [1] | Stability [2] | Stability [3] | inhibition [4]
1 | CC[C@H](C)[C@H](NC(=O)[C@H](Cc1ccccc1)NC(=O)[C@H](Cc1ccccc1)NC(=O)[C@H](CCCNC(=N)N)NC(=O)[C@H](CCCNC(=N)N)NC(=O)[C@H](CCCCN)NC(=O)[C@H](CCCCN)NC(=O)[C@H](CC(=O)O)NC(=O)[C@@H](NC(=O)[C@H](CO)NC(=O)[C@H](CCCCN)NC(=O)[C@H](CS)NC(=O)[C@H](Cc1ccc(O)cc1)NC(=O)[C@H](CS)NC(=O)CNC(=O)[C@@H](N)CS)C(C)C)C(=O)N1CCC[C@H]1C(=O)N[C@H](C(=O)N[C@@H](CS)C(=O)N[C@@H](CC(C)C)C(=O)N[C@@H](CCCNC(=N)N)C(=O)N[C@@H](CO)C(=O)N[C@@H](CS)C(=O)N[C@@H](CS)C(=O)N[C@@H](CC(N)=O)C(=O)O)[C@@H](C)O (H-CGCYCKSVDKKRRFFIPTCLRSCCN-OH) | 83.8 | – | – | –
2 | CC[C@H](C)[C@@H]1NC(=O)[C@H](Cc2ccccc2)NC(=O)[C@H](Cc2ccccc2)NC(=O)[C@H](CCCNC(=N)N)NC(=O)[C@H](CCCNC(=N)N)NC(=O)[C@H](CCCCN)NC(=O)[C@H](CCCCN)NC(=O)[C@H](CC(=O)O)NC(=O)[C@H](C(C)C)NC(=O)[C@H](CO)NC(=O)[C@H](CCCCN)NC(=O)[C@@H]2CSSC[C@@H](C(=O)N[C@@H](CC(N)=O)C(=O)O)NC(=O)[C@@H]3CSSC[C@H](N)C(=O)NCC(=O)N[C@@H](CSSC[C@H](NC(=O)[C@H]([C@@H](C)O)NC(=O)[C@@H]4CCCN4C1=O)C(=O)N[C@@H](CC(C)C)C(=O)N[C@@H](CCCNC(=N)N)C(=O)N[C@@H](CO)C(=O)N3)C(=O)N[C@@H](Cc1ccc(O)cc1)C(=O)N2 (H-CGCYCKSVDKKRRFFIPTCLRSCCN-OH; disulfide 1-23, 3-19, 5-24) | – | Stable | Unstable | inactive
